Test results: publication PMC5566973 (Frontiers in Pharmacology, 2017)

Key:
[1] = Urinary and fecal excretion in rats; type: in vivo, Sprague-Dawley rats; settings: for Cumulative excretion of the analyte, SUM of urine and feces: within 72 h
Procedure: Access to water was maintained all the time. Samples including blank urine and feces before dosing, urine and feces from 0 to 24 h, 24 to 48 h, and 48 to 72 h after dosing were collected and stored at −80°C until analysis.
Urine samples were thawed and an aliquot of 100 μL was processed for detection as described in Section Drug Analysis. Feces were homogenized and then weighed, added 6-folds of acetonitrile, extracted by ultrasonic wave for 1 h and then centrifuged. An aliquot of 100 μL was also processed for detection as described in Section Drug Analysis.

Caco-2 cell monolayers = settings: transcellular flux marker; ref Shen et al., 2015; cited from earlier work
human BCRP = molecular target: T1, human BCRP (Homo sapiens, UniProt Q9UNQ0); assay: Vesicular transport assay, Sf9 membrane vesicles expressing human BCRP; type: in vitro ADME; settings: 10 μM, MgATP vs MgAMP
T1 construct: purchased GenoMembrane (Kanagawa, Japan); host or cells: Sf9
T1 sequence (Q9UNQ0 1-655): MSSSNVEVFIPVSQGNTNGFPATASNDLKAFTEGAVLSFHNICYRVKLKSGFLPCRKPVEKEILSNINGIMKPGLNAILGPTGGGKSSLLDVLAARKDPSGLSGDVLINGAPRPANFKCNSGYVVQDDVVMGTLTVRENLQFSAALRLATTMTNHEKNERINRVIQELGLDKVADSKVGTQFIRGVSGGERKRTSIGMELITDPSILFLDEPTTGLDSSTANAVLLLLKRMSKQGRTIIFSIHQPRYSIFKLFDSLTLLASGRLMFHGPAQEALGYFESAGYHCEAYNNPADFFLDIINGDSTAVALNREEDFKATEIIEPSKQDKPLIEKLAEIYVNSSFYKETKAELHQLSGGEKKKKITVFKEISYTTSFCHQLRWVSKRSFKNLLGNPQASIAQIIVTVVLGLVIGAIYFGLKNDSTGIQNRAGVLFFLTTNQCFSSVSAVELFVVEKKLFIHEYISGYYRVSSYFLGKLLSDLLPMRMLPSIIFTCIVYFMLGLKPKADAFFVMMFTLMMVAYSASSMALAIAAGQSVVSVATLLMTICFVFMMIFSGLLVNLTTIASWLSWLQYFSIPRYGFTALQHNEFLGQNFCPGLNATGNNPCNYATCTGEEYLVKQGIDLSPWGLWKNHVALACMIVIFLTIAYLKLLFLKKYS
Procedure: (§1) The vesicular transport assay was implemented as described in the GenoMembrane™ vesicular transport kit protocol (GenoMembrane, Kanagawa, Japan) with minor changes. Briefly, vesicle stocks were thawed and diluted with assay buffer (50 mM MOPS-Tris, 70 mM KCl, and 7.5 mM MgCl2). […] MgAMP instead of MgATP was used as a control. Apart from these, 4 mM glutathione was also included in BCRP and MRP2 assays. Transport was terminated with ice cold assay buffer, and then samples were quickly transferred to a filter plate. Wells were immediately washed 5 times with 200 μL assay buffer and dried. The vesicles on the plate were dissolved in 50 μL of 80% methanol and centrifuged at 2,000 rpm for 2 min after collection, and repeating the above procedures. Mixed the two filtrates together and added the pre-cooled methanol. After centrifugation at 12,000 rpm for 5 min at 4°C, a 5 μL aliquot of supernatant was injected into the UPLC-ESI-MS/MS system for analysis. Furthermore, the uptake of NMQ (MDR1), LY (BCRP), and E217βG (MRP2) was used to evaluate the activity of specific vesicles.

human MRP2 = molecular target: T2, human MRP2 (Homo sapiens, UniProt Q92887); assay: Vesicular transport assay, Sf9 membrane vesicles expressing human MRP2; type: in vitro ADME; settings: probe at 50 μM
T2 construct: purchased GenoMembrane (Kanagawa, Japan); host or cells: Sf9
Procedure: as §1

human MDR1 = molecular target: T3, human MDR1 (Homo sapiens, UniProt P08183); assay: Vesicular transport assay, Sf9 membrane vesicles expressing human MDR1; type: in vitro ADME; settings: probe at 5 μM
T3 construct: purchased GenoMembrane (Kanagawa, Japan); host or cells: Sf9
Procedure: as §1

[2] = after oral harmaline 40.0 mg/kg, 24 h
[3] = after oral harmaline 40.0 mg/kg, 48 h
[4] = after oral harmaline 40.0 mg/kg, 72 h
[5] = after oral harmaline 40.0 mg/kg
[6] = after oral harmine 40.0 mg/kg, 24 h
[7] = after oral harmine 40.0 mg/kg, 48 h
[8] = after oral harmine 40.0 mg/kg, 72 h

T3 sequence (P08183 whole entry): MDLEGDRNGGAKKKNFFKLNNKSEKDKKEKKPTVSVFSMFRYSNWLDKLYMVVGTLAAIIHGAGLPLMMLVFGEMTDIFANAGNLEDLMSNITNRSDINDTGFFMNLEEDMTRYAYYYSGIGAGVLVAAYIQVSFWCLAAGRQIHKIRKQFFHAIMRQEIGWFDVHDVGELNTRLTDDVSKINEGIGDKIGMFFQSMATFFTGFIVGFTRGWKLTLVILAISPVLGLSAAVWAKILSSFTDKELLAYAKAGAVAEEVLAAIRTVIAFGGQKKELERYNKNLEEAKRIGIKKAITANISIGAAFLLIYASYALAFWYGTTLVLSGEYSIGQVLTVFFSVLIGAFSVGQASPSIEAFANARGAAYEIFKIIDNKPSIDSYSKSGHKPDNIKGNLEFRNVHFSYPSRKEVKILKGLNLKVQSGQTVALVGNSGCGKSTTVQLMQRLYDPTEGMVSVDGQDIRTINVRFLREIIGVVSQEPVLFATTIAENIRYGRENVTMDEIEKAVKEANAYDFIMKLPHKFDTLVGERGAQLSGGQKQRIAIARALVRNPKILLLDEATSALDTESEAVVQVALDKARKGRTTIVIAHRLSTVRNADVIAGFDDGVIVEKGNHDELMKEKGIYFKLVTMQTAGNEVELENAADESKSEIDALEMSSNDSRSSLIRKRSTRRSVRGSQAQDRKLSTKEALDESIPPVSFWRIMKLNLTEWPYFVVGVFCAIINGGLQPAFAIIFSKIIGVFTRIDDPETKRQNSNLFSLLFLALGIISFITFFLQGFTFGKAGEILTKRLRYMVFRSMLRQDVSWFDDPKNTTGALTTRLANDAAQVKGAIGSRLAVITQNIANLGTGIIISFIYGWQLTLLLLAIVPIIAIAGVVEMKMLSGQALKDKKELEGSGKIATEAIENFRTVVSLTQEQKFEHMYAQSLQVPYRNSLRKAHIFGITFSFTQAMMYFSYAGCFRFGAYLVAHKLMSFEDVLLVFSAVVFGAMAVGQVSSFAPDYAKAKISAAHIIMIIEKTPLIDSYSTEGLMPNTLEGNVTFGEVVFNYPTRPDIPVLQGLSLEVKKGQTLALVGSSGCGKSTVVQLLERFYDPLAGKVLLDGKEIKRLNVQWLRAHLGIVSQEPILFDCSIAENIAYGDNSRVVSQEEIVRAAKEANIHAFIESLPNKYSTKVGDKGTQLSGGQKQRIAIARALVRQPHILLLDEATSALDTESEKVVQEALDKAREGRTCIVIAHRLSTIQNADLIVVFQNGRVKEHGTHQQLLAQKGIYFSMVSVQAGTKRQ
T2 sequence (Q92887 whole entry): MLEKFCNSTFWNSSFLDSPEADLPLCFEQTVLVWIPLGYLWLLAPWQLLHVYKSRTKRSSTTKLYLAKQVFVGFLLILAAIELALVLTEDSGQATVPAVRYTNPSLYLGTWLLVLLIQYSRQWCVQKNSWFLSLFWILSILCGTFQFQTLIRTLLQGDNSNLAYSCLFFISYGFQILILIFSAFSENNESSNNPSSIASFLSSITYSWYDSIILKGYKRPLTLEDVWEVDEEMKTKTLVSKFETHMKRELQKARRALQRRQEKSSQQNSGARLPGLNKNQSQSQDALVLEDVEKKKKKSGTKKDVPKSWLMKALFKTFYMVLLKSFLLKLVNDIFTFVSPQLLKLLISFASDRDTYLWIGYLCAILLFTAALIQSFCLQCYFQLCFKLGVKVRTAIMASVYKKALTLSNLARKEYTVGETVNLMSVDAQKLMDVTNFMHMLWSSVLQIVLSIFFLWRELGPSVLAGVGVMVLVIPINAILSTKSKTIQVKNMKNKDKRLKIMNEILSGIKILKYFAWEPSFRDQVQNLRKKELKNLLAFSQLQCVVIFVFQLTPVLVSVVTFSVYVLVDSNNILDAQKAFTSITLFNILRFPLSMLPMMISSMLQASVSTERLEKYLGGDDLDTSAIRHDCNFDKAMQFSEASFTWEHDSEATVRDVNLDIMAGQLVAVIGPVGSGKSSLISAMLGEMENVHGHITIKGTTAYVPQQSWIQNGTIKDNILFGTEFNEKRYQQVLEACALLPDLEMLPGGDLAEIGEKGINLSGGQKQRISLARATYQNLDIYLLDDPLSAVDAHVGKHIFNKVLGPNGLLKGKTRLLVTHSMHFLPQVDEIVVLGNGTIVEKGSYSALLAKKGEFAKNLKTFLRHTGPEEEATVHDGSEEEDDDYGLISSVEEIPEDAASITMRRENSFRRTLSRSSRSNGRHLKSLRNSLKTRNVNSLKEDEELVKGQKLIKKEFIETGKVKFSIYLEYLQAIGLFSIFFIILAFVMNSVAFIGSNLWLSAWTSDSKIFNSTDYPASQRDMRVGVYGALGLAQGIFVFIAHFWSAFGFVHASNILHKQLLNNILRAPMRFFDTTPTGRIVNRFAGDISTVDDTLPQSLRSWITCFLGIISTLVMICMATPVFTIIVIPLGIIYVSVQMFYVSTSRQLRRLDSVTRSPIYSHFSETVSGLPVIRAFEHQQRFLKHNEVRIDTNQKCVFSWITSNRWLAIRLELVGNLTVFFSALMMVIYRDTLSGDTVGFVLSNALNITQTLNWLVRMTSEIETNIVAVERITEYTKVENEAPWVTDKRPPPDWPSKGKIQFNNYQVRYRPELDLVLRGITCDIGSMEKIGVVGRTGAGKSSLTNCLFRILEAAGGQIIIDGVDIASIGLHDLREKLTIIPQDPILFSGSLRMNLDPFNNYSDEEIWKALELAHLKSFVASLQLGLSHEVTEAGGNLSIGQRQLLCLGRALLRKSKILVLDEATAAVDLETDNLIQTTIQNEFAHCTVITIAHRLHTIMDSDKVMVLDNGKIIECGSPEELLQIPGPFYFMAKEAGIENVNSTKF

Compound	Cumulative excretion in feces (%) of the analyte [1, 2]	Cumulative excretion in urine (%) of the analyte [1, 2]	Cumulative excretion in feces (%) of the analyte [1, 3]	Cumulative excretion in urine (%) of the analyte [1, 3]	Cumulative excretion in feces (%) of the analyte [1, 4]	Cumulative excretion in urine (%) of the analyte [1, 4]	Cumulative excretion of the analyte, SUM of urine and feces [1, 5]	also measured
Cc1[nH]ccc2c1[nH]c1cc(=O)ccc12 [Harmol]	1.24 ± 0.51%	0.23 ± 0.42%	1.64 ± 0.73%	0.50 ± 0.55%	1.70 ± 0.75%	0.65 ± 0.56%	2.35 ± 0.91%	Cumulative excretion in feces (%) of the analyte [1, 6]: 5.66 ± 2.96%; Cumulative excretion in urine (%) of the analyte [1, 6]: 2.51 ± 2.82%; Cumulative excretion in feces (%) of the analyte [1, 7]: 7.69 ± 3.33%; Cumulative excretion in urine (%) of the analyte [1, 7]: 4.63 ± 4.53%; Cumulative excretion in feces (%) of the analyte [1, 8]: 8.38 ± 3.47%; Cumulative excretion in urine (%) of the analyte [1, 8]: 5.42 ± 5.19%; Cumulative excretion of the analyte, SUM of urine and feces ([1]; after oral harmine 40.0 mg/kg): 13.80 ± 5.71%
CC(C)NCC(O)COc1cccc2ccccc12 (stereo not shown) [propranolol, reference compound]								PappAB (Caco-2 cell monolayers): 41.90 ± 3.30 × 10^−6 cm/s
lucifer yellow [LY, reference compound]								uptake ratio (UR) (human BCRP): 19.66
CC1=NCCc2c1[nH]c1cc(O)ccc21 [Harmalol]	1.73 ± 1.01%	1.16 ± 0.81%	1.87 ± 1.04%	2.03 ± 2.12%	1.89 ± 1.04%	2.30 ± 2.36%	4.18 ± 2.67%	
C[C@]12CC[C@@H]3c4ccc(O)cc4CC[C@H]3[C@@H]1CC[C@@H]2O[C@@H]1O[C@H](C(=O)O)[C@@H](O)[C@H](O)[C@H]1O [E217βG, estradiol-17 β-glucuronide, reference compound]								uptake ratio (UR) (human MRP2): 7.71
C=C[C@H]1C[N+]2(C)CC[C@H]1C[C@@H]2[C@@H](O)c1ccnc2ccc(OC)cc12 [NMQ, N-methylquinidine, reference compound]								uptake ratio (UR) (human MDR1): 2.05
